{
  "source": "patent US20090041778A1",
  "about": "“Methods And Compositions For The Treatment Of Graft Failure” (priority 2004, published 2009)",
  "key": {"[1]": {"tested_on": "neointimal hyperplasia", "conditions": "rabbit carotid artery balloon angioplasty and vein graft intimal hyperplasia models; cited from earlier work"}, "[2]": {"tested_on": "cells of porcine origin from a primary explant of porcine carotid artery", "experiment": "PDGF-induced migration of cells of porcine origin (Boyden chamber)", "assay_type": "cell-based", "conditions": "hPDGF-BB 20 ng/ml; second passage cells; dose dependent", "method": "(§1) The cells were then cultured in the presence of these agents for forty-eight hours prior to the migration assay. […] Each well contained an insert with a polycarbonate filter having 8 μm pores. In preparation for the migration assays, the membranes were coated with 0.1% gelatin for 8 hours, aspirated, and allowed to dry for 2 hours.\n(§2) The M-199 media containing 0.5% BSA and 20 ng/ml human PDGF-B (hPDGF-BB) was placed in the bottom Boyden chamber. Cells were incubated at 5% CO2 at 37° C. for twelve hours and the cells lying on the upper surface of the membrane were scraped off. The insert membranes were removed and the cells on the lower surface of each membrane were stained with hematoxylin. Cell migration was then quantified by counting the cells in five random high-power fields on the lower surface of the membrane. All assays were run in triplicate."}, "[3]": {"tested_on": "human aortic vascular smooth muscle cell (HASOM cells)", "experiment": "PDGF-induced migration of HASOM cells in a 24-well Boyden chamber", "assay_type": "cell-based", "method": "as §1, §2"}, "[4]": {"tested_on": "neointimal hyperplasia in mouse vein grafts", "conditions": "administered locally; cited from earlier work"}, "[5]": {"tested_on": "intimal thickening after balloon angioplasty", "conditions": "rabbit model; administered systemically; cited from earlier work"}, "[6]": {"conditions": "cited from earlier work"}, "[7]": {"experiment": "Solubility in aqueous buffer / hydrophilicity", "assay_type": "physicochemical"}},
  "note": "Entries after “also recorded” stand apart in the source; their conditions may differ. Structures can show the parent of a compound that is named as a salt.",
  "data": [
    {"smiles": "COc1cccc(CCc2ccccc2OCC(CN(C)C)OC(=O)CCC(=O)O)c1.Cl", "note": "(stereo not drawn) [Anplag]", "values": [
      {"measurement": "prevention of neointimal hyperplasia", "setting": "[1]", "result": "effective"}
    ]},
    {"smiles": "Cc1ccc(NC(=O)c2ccc(CN3CCN(C)CC3)cc2)cc1Nc1nccc(-c2cccnc2)n1", "note": "[Gleevec, imatinib mesylate]", "values": [
      {"measurement": "inhibition of PDGF-B induced migration of porcine cells", "setting": "[2]", "result": "inhibited"},
      {"measurement": "inhibition of PDGF induced migration of HASOM cells", "setting": "[3]; hPDGF-BB 20 ng/ml, 48 h drug pre-treatment, 12 h migration, dose dependent", "result": "potently inhibited; also recorded: inhibited migration"}
    ]},
    {"smiles": "O=C(c1ccc(F)cc1)C1CCN(CCn2c(=O)[nH]c3ccccc3c2=O)CC1", "note": "[Ketanserin]", "values": [
      {"measurement": "prevention of neointimal hyperplasia", "setting": "[1]", "result": "effective"}
    ]},
    {"smiles": "Cc1ccc(C(=O)Nc2ccc(S(=O)(=O)O)c3cc(S(=O)(=O)O)cc(S(=O)(=O)O)c23)cc1NC(=O)c1cccc(NC(=O)Nc2cccc(C(=O)Nc3cc(C(=O)Nc4ccc(S(=O)(=O)O)c5cc(S(=O)(=O)O)cc(S(=O)(=O)O)c45)ccc3C)c2)c1", "note": "[Suramin]", "values": [
      {"measurement": "inhibition of neointimal hyperplasia in mouse vein grafts", "setting": "[4]", "result": "effective"},
      {"measurement": "inhibition of intimal thickening after balloon angioplasty", "setting": "[5]", "result": "inhibit intimal thickening"}
    ]},
    {"smiles": "CO[C@H]1C[C@@H]2CC[C@@H](C)[C@@](O)(O2)C(=O)C(=O)N2CCCC[C@H]2C(=O)O[C@H]([C@H](C)C[C@@H]2CC[C@@H](O)[C@H](OC)C2)CC(=O)[C@H](C)/C=C(\\C)[C@@H](O)[C@@H](OC)C(=O)[C@H](C)C[C@H](C)/C=C/C=C/C=C/1C", "note": "[rapamycin]", "values": [
      {"measurement": "absorption after oral administration", "setting": "[6]", "result": "absorbed rapidly and completely"},
      {"measurement": "hydrophilicity", "setting": "[7]", "result": "very hydrophilic"},
      {"measurement": "IC50", "setting": "[3]; Homo sapiens, in vitro VSMC migration, read-out: IC50 for blocking VSMC migration", "result": "1 to 5", "unit": "ng/mL"}
    ]}
  ]
}
